Reference: patent publication US20040152695A1, “Pharmaceutical composition of 1-(3-hydroxy-4-methoxyphenyl)-4-methyl-5-ethyl-7,8-dimethoxy-5H-2,3-benzodiazepine and uses thereof” (Vela Pharmaceuticals, Inc., priority 2002, published 2004)

Legend:
[1] = molecular target: T1, TXA2 receptor (Homo sapiens, UniProt P21731); assay: TXA2 binding assay ([3H]SQ 29,548), human platelet-based; conditions: human platelets
T1 construct: from tissue; host or cells: human platelets
T1 sequence (P21731 1-343): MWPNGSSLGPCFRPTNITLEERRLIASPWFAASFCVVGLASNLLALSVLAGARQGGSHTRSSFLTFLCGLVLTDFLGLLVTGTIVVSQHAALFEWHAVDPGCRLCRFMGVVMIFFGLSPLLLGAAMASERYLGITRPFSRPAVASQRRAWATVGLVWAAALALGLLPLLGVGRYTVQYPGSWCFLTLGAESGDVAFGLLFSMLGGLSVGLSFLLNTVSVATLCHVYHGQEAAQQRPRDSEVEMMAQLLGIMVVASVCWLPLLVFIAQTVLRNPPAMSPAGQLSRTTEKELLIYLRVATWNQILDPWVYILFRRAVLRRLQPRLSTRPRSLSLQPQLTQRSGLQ
Procedure: The ability of 1-(3-hydroxy-4-methoxyphenyl)-4-methyl-5-ethyl-7,8-dimethoxy-5H-2,3-benzodiazepine to inhibit the binding of [^3H]SQ 29,548 (30-60 Ci/mmol) was determined via the human platelet-based assay of Hedberg et al., “Characterization of [^3H]SQ 29,548 as a High Affinity Radioligand Binding to Thromboxane A2—Receptors in Human Platelets.”, J. Pharmacol. Exp. Ther. 245: 786-792 (1988), with modifications. TXA2 is a very unstable molecule, thus a surrogate ligand of known affinity for the TXA2 receptor is required as a standard for determination of binding affinity of new potential TXA2 ligands. [^3H]SQ 29,548 is a ligand with known binding affinity for the TXA2 receptor. [^3H]SQ 29,548 has been employed as a TXA2 ligand in several published studies, is accepted as a TXA2 binding standard, and is thus useful as a standard in assessing the binding affinity of new compounds to the TXA2 receptor. […]
Reactions were carried out in a reaction mixture comprising 25 mM TRIS-HCl (pH 7.4) containing 138 mM NaCl, 5 mM KCl, 5 mM MgCl2, 5.5 mM dextrose, and 2 mM EDTA at 25° C. for 60 minutes. […] Radioactivity trapped onto the filters was determined and compared to control values in order to ascertain any interactions of test compound with the thromboxane A2 binding site.

[2] = tested on: DSS-induced colitis in mice; assay: Dextran sulfate sodium induced colitis: mouse model of inflammatory bowel disease; assay type: in vivo; conditions: for % of normal length: colon length; for Mean DAIWT ± SEM: DAI without weight loss parameter; for Mean DAI ± SEM: mice
[3] = molecular target: T2, LTB4 receptor (Cavia porcellus, UniProt H0VYV8); assay: Inhibition of [3H]LTB4 binding, guinea pig spleen membrane assay; conditions: 10 μM test compound; for inhibition at 10 µM: 1 nM [3H]LTB4, read-out: LTB4 % inhib @ 10 μm; for LTB4 % inhib @ 10 μm: 1 nM [3H]LTB4
T2 construct: 1.0 mg/mL of the Guinea pig spleen membrane preparation; from tissue; host or cells: guinea pig spleen membranes
Procedure: The ability of 1-(3-hydroxy-4-methoxyphenyl)-4-methyl-5-ethyl-7,8-dimethoxy-5H-2,3-benzodiazepine to inhibit [^3H]LTB4 binding to the LTB4 receptor was determined as follows using the guinea pig spleen membrane assay of Cheng et al., J. Pharmacol. Exp. Ther., 236(1), 126-132, 1986, the entire disclosure of which is incorporated herein by reference.
Reactions were carried out in a phosphate buffer (pH 7.4) containing NaCl, MgCl2, EDTA, and bacitracin. The reaction volume of 150 μL containing 1.0 mg/mL of the Guinea pig spleen membrane preparation and 1 nM [^3H]LTB4, with or without a candidate inhibitor, was incubated at 0-4° C. for 2 hours. Candidate inhibitors included the compounds listed in Table 1 and unlabeled LTB4 as a control. The reaction was terminated by rapid vacuum filtration onto glass fiber filters. The filter was washed with cold buffer, dried and placed in a scintillation vial. Radioactivity trapped onto the filters was determined and compared to control values in order to ascertain any interactions of the test compound with the LTB4 binding site.

[4] = tested on: aggression in mice; conditions: cited from earlier work
[5] = tested on: anti-noradrenergic effects; conditions: cited from earlier work
[6] = tested on: muricide in rats; conditions: cited from earlier work
[7] = tested on: narcosis in mice; conditions: cited from earlier work
[8] = tested on: central BZ receptors; conditions: cited from earlier work
[9] = molecular target: peripheral BZ receptors (Homo sapiens, UniProt P30536); conditions: cited from earlier work
[10] = molecular target: T1, TXA2 receptor; conditions: reference competitor in [3H]SQ 29,548 assay; cited from earlier work

T2 sequence (H0VYV8 1-348): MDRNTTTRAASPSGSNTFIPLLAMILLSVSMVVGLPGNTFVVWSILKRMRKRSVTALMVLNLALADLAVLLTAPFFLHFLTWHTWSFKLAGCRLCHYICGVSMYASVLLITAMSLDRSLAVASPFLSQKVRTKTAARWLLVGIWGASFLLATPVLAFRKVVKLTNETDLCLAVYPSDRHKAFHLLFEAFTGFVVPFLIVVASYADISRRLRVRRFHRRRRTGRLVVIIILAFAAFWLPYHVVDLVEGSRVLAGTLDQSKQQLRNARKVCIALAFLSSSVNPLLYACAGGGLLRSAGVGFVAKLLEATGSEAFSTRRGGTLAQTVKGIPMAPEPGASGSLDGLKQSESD
peripheral BZ receptors, sequence (P30536 whole entry): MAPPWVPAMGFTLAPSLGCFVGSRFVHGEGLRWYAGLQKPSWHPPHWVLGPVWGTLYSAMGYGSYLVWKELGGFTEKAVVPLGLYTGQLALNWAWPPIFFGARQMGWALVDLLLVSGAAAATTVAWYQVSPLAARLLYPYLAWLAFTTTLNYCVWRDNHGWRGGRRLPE

## CCC1C(C)=NN=C(c2ccc(OC)c(O)c2)c2cc(OC)c(OC)cc21 (racemic) [Compound 4, 1-(3-hydroxy-4-methoxyphenyl)-4-methyl-5-ethyl-7,8-dimethoxy-5H-2,3-benzodiazepine]
[1]
  inhibition at 10 µM: 25.9%
[2]; 16 mg/kg IP daily + DSS
  Mean colon length CM ± SEM: 8.9 ± 0.40 CM
  Mean weight (g) ± SEM Day 0: 24.6 ± 0.5 g
  % weight change ± SEM Day 7: +0.5 ± 2.2%
  Mean weight (g) ± SEM Day 7: 24.8 ± 0.8 g
  % weight change ± SEM Day 8: −1.7 ± 3.0%
  Mean weight (g) ± SEM Day 8: 24.3 ± 1.0 g
  % weight change ± SEM Day 9: −7.5 ± 4.3%
  Mean weight (g) ± SEM Day 9: 22.9 ± 1.4 g
  % of normal length: 70.2%
[2]; 16 mg/kg IP daily + DSS, listed as 1-(3-hydroxy-4-methoxy-phenyl)-4-methyl-5-ethyl-7,8-dimethoxy-5H-2,3-benzodiazep
  Colon shortening inhib. %: significantly inhibited colonic shortening
[2]; 16 mg/kg IP daily + DSS, listed as 1-(3-hydroxy-4-methoxyphenyl)-4-methyl-5-ethyl-7,8-dimethoxy-5H-2,3-benzodiazepi
  Colon shortening inhib. %: 32%
[2]; 32 mg/kg IP daily + DSS
  Colon shortening inhib. %: 14%
  Mean colon length CM ± SEM: 7.9 ± 0.08 CM
  Mean DAIWT ± SEM: 2.56 ± 0.27
  Mean weight (g) ± SEM Day 0: 24.8 ± 0.2 g
  % weight change ± SEM Day 7: −2.5 ± 1.7%
  Mean weight (g) ± SEM Day 7: 24.1 ± 0.5 g
  % weight change ± SEM Day 8: −9.1 ± 2.6%
  Mean weight (g) ± SEM Day 8: 22.5 ± 0.7 g
  % weight change ± SEM Day 9: −15.7 ± 4.1%
  Mean weight (g) ± SEM Day 9: 20.9 ± 1.0 g
  % of normal length: 62.3%
  Mean DAI ± SEM: 2.67 ± 0.36
[2]; 64 mg/kg IP daily + DSS
  Colon shortening inhib. %: 37%
  Mean colon length CM ± SEM: 9.2 ± 0.33 CM
  Mean DAIWT ± SEM: 2.00 ± 0.45
  Mean weight (g) ± SEM Day 0: 23.7 ± 0.2 g
  % weight change ± SEM Day 7: −2.7 ± 2.8%
  Mean weight (g) ± SEM Day 7: 23.0 ± 0.6 g
  % weight change ± SEM Day 8: −4.8 ± 4.3%
  Mean weight (g) ± SEM Day 8: 22.5 ± 0.9 g
  % weight change ± SEM Day 9: −9.7 ± 4.9%
  Mean weight (g) ± SEM Day 9: 21.3 ± 1.1 g
  % of normal length: 72.5%
  Mean DAI ± SEM: 2.06 ± 0.48
[2]; test compound groups (64, 32, 16 mg/kg) + DSS
  weight loss as compared to the negative controls: no observed significant difference
[3]
  inhibition at 10 µM: 64%

## CCC1C(C)=NN=C(c2ccc(OC)c(OC)c2)c2cc(OC)c(O)cc21 (stereo not drawn) [Compound 1, 1-(3,4-dimethoxyphenyl)-4-methyl-5-ethyl-7-hydroxy-8-methoxy-5H-2,3-benzodiazepine]
[4]
  inhibition of aggression: 0%
[5]
  anti-noradrenergic effects: no effect
[6]
  inhibition of muricide: 20%

## CCC1C(C)=NN=C(c2ccc(OC)c(OC)c2)c2cc(O)c(OC)cc21 (stereo not drawn) [Compound 2, 1-(3,4-dimethoxyphenyl)-4-methyl-5-ethyl-7-methoxy-8-hydroxy-5H-2,3-benzodiazepine]
[3]
  inhibition at 10 µM: 36%

## CCC1C(C)=NN=C(c2ccc(O)c(OC)c2)c2cc(OC)c(OC)cc21 (stereo not drawn) [Compound 3, 1-(3-methoxy-4-hydroxyphenyl)-4-methyl-5-ethyl-7,8-dimethoxy-5H-2,3-benzodiazepine]
[4]
  inhibition of aggression: 0%
[5]
  anti-noradrenergic effects: measurable activity
[7]
  narcosis-potentiating activity: demonstrate narcosis-potentiating activity
[6]
  inhibition of muricide: 0%
[3]
  inhibition at 10 µM: 16.8%

## CCC1C(C)=NN=C(c2ccc(O)c(OC)c2)c2cc(OC)c(O)cc21 (stereo not drawn) [Compound 5, 1-(3-methoxy-4-hydroxyphenyl)-4-methyl-5-ethyl-7-hydroxy-8-methoxy-5H-2,3-benzodiazepine]
[4]
  inhibition of aggression: 28.6%
[5]
  anti-noradrenergic effects: measurable activity
[6]
  inhibition of muricide: 20%
[3]
  LTB4 % inhib @ 10 μm: inactive

## CCC1C(C)=NN=C(c2ccc(OC)c(O)c2)c2cc(OC)c(O)cc21 (stereo not drawn) [Compound 6, 1-(3-hydroxy-4-methoxyphenyl)-4-methyl-5-ethyl-7-hydroxy-8-methoxy-5H-2,3-benzodiazepine]
[3]
  LTB4 % inhib @ 10 μm: inactive

## O=C(O)c1cc(/N=N/c2ccc(S(=O)(=O)Nc3ccccn3)cc2)ccc1O [Sulfasalazine, reference compound]
[2]; 300 mg/kg IP daily + DSS
  Colon shortening inhib. %: 30%
  Mean colon length CM ± SEM: 8.8 ± 0.29 CM
  Mean weight (g) ± SEM Day 0: 22.6 ± 0.2 g
  % weight change ± SEM Day 7: −0.6 ± 0.5%
  Mean weight (g) ± SEM Day 7: 22.4 ± 0.2 g
  % weight change ± SEM Day 8: −11.4 ± 1.4%
  Mean weight (g) ± SEM Day 8: 20.0 ± 0.4 g
  % weight change ± SEM Day 9: −17.7 ± 1.8%
  Mean weight (g) ± SEM Day 9: 18.6 ± 0.4 g
  % of normal length: 69.5%
[2]; 300 mg/kg daily + DSS
  weight loss as compared to the negative controls: no observed significant difference

## CCC1C(C)=NN=C(c2ccc(OC)c(OC)c2)c2cc(OC)c(OC)cc21 (stereo not drawn) [tofisopam]
[8]
  interaction with central BZ receptors: does not interact
[9]
  binding to peripheral BZ receptors: binds only weakly

## Pinane-thromboxane
[10]
  Ki: 149 nM
